Source: US20250376473A1, “PRMTS INHIBITOR AND USE THEREOF” (Cytosinlab Therapeutics Co., Ltd., priority 2022, published 2025)
Where two headings read alike, the source gives them in different places.

Tests used:
[1] = system: HCT116-MTAP-KO cells (HCT116 MTAP null); experiment: Proliferation inhibition of HCT116 MTAP-KO cells in vitro (CellTiter Glo); format: cell-based; conditions: 6 days, 9 concentrations starting from 3 μM, read-out: Cell proliferation inhibition rate HCT116 MTAP null IC50 (nm)
Description: (§1) Biological Test Example 2 Proliferation Inhibition of HCT116 and HCT116 MTAP-KO Cells in Vitro
(§2) HCT116 cell line was purchased from the Chinese Academy of Sciences Cell Bank, and the MTAP gene was knocked out by CRISPR/Cas9 technology to obtain HCT116-MTAP-KO cell line.
(§3) McCoy's 5A medium (Gibco, catalog No. 16600082), fetal bovine serum (Gibco, catalog No. 10099141C), penicillin-streptomycin double antibody (Gibco, catalog No. 15140122), pancreatic enzyme (Gibco, catalog No. 25200056), CellTiter Glo assay kit (Promega, catalog No. G7572), 384-well transparent flat-bottomed black walled cell culture plate (Corning, catalog No. 3764), ultra micro sampler (Tecan, catalog No.D300e), Multimode reader (Biotek, catalog No. SynergyHTX)
(§4) 1. Cell culture: HCT116 and HCT116-MTAP-KO cells were cultured in McCoy'5A medium+10% fetal bovine serum+1% penicillin-streptomycin double antibody; to ensure that they were always in the logarithmic growth phase and the cell viability greater than 95%.
(§5) 2. Compound concentration gradient preparation: The compound to be tested was added to a 384-well plate using an ultra micro sampler, starting from 30 μM (HCT116 cells) or 3 μM (HCT116-MTAP-KO cells), and diluted with DMSO at 3 times for a total of 9 concentrations and set up three duplicate wells.
(§6) 3. Treatment of cells with compounds: Trypsin-digested HCT116 or HCT116-MTAP-KO cell suspension was added to the 384-well plates spotted with the compounds to be tested at 40 μL per well, i.e., 100 cells per well, and the final concentration of DMSO was 0.4%. The cell culture plate was incubated at 37° C. in a 5% CO2 incubator for 6 days.
(§7) 4. Detection: 20 μL of CellTiter Glo reagent was added to each well of the cell culture plate and incubated at room temperature for 30 minutes. A multimode reader was used to detect the luminescence signal at […].
(§8) The data was fitted with GraphPad Prism 8.0 software using a four parameter inhibitor-reaction model to obtain the IC50 value (half inhibitory concentration) of the test compounds.

[2] = system: HCT116 MTAP WT cells; experiment: Proliferation inhibition of HCT116 cells in vitro (CellTiter Glo); format: cell-based; conditions: 6 days, 9 concentrations starting from 30 μM, read-out: Cell proliferation inhibition rate HCT116 MTAP WT IC50 (nm)
Description: as §1, §2, §3, §4, §5, §6, §7, §8

Row | SMILES | IC50 ([1]; HCT116-MTAP null, 144 h) [nM] | IC50 ([2]; Homo sapiens, HCT-116, 144 h) [nM] | IC50 [1] [nM] | IC50 [2] [nM]
1 | Cc1cc2nc(N)c3cnc(C)n3c2cc1C(=O)N(Cc1ccc(C(F)(F)F)cn1)c1cn(C)nc1C [Example 188, 4-Amino-N-(1,3-dimethyl-1H-pyrazol-4-yl)-1,7-dimethyl-N-((5-(trifluoromethyl)pyridin-2-yl)methyl)imidazolo[1,5-a]quinoxalin-8-carboxamide] | < 100 | 1000 to 10000 | – | –
2 | Cc1nn(C)cc1N(Cc1ccc(C(F)(F)F)cn1)C(=O)c1ccc2nc(N)c3c(C)nc(C)n3c2c1 [Example 190] | 100 to 1000 | 1000 to 10000 | – | –
3 | CCn1cc(N(Cc2ccc(C(F)(F)F)cn2)C(=O)c2cc3c(cn2)nc(N)c2cnc(C)n23)c(C)n1 [Example 192] | < 100 | 1000 to 10000 | – | –
4 | Cc1cnc(C)c(N(Cc2ccc(C(F)(F)F)cn2)C(=O)c2cc3c(cc2F)nc(N)c2cnc(C)n23)c1 [Example 196] | < 100 | 1000 to 10000 | – | –
5 | COc1ccc(CN(C(=O)c2cc3c(cc2F)nc(N)c2c(C)ncn23)c2cn(C)nc2C)nn1 [Example 197] | < 100 | 100 to 1000 | – | –
6 | CCn1cc(N(Cc2ccc(OC3CC3)cn2)C(=O)c2cc3c(cn2)nc(N)c2cnc(C)n23)c(C)n1 [Example 199] | < 100 | 1000 to 10000 | – | –
7 | Cc1ncc2c(N)nc3cc(F)c(C(=O)N(Cc4ccc(C(F)(F)F)cn4)c4ccnn4C)cc3n12 [Example 200] | < 100 | 100 to 1000 | – | –
8 | Cc1ncc2c(N)nc3cc(F)c(C(=O)N(Cc4ccc(C(F)(F)F)cn4)c4c(F)cnn4C)cc3n12 [Example 201] | < 100 | 100 to 1000 | – | –
9 | CCn1cc(N(Cc2ccc(C(F)(F)F)nn2)C(=O)c2cc3c(cc2F)nc(N)c2cnc(C)n23)c(C)n1 [Example 202] | 100 to 1000 | 1000 to 10000 | – | –
10 | Cc1nn(C)cc1N(Cc1ncc(C(F)(F)F)s1)C(=O)c1cc2c(cc1F)nc(N)c1cnc(C)n12 [Example 203] | < 100 | 1000 to 10000 | – | –
11 | CCn1nccc1N(Cc1ccc(C(F)(F)F)cn1)C(=O)c1cc2c(cc1F)nc(N)c1cnc(C)n12 [Example 206] | < 100 | 100 to 1000 | – | –
12 | Cc1nn(C)cc1N(Cc1ccc(C(F)(F)F)cn1)Cc1cc2c(cc1F)nc(N)c1cnc(C)n12 [Example 208] | < 100 | 1000 to 10000 | – | –
13 | Cc1cn(C)c(N(Cc2ccc(C(F)(F)F)cn2)C(=O)c2cc3c(cc2F)nc(N)c2cnc(C)n23)n1 [Example 210, 4-Amino-N-(1,4-dimethyl-1H-imidazol-2-yl)-7-fluoro-1-methyl-N-((5-(trifluoromethyl)pyridin-2-yl)methyl)imidazolo[1,5-a]quinoxalin-8-carboxamide] | < 100 | 1000 to 10000 | – | –
14 | CCOc1ccc(CN(C(=O)c2cc3c(cc2F)nc(N)c2cnc(C)n23)c2ccnn2C)nc1 [Example 212] | < 100 | 1000 to 10000 | – | –

The next lines start with the values.

Row | IC50 ([1]; HCT116-MTAP null, 144 h) [nM] | IC50 ([2]; Homo sapiens, HCT-116, 144 h) [nM] | IC50 [1] [nM] | IC50 [2] [nM] | SMILES
15 | < 100 | 100 to 1000 | – | – | Cc1nn(C)cc1N(Cc1ccc(OC2CC2)cn1)C(=O)c1cc2c(cn1)nc(N)c1cnc(C)n12 [Example 189]
16 | < 100 | 100 to 1000 | – | – | Cc1nn(C)cc1N(Cc1ccc(C(F)(F)F)nn1)C(=O)c1cc2c(cc1F)nc(N)c1c(C)ncn12 [Example 193]
17 | < 100 | 1000 to 10000 | – | – | Cc1cc(C)c(N(Cc2ccc(C(F)(F)F)cn2)C(=O)c2cc3c(cc2F)nc(N)c2cnc(C)n23)cn1 [Example 194]
18 | < 100 | 100 to 1000 | – | – | Cc1nn(C)cc1N(Cc1ccc(OC2COC2)cn1)C(=O)c1cc2c(cc1F)nc(N)c1c(C)ncn12 [Example 195]
19 | < 100 | 100 to 1000 | – | – | Cc1ncc2c(N)nc3cc(F)c(C(=O)N(Cc4ccc(OC5CC5)cn4)c4ccnn4C)cc3n12 [Example 205]
20 | < 100 | 1000 to 10000 | – | – | Cc1ncc2c(N)nc3cc(F)c(C(=O)N(Cc4ccc(F)cn4)c4ccnn4C)cc3n12 [Example 207]
21 | < 100 | 1000 to 10000 | – | – | Cc1ncc2c(N)nc3cc(F)c(C(=O)N(Cc4ccc(C(F)(F)F)cn4)c4cnnn4C)cc3n12 [Example 209]
22 | < 100 | 1000 to 10000 | – | – | Cc1ncc2c(N)nc3cnc(C(=O)N(Cc4ccc(C(F)(F)F)cn4)c4ccnn4C)cc3n12 [Example 211]
23 | – | – | < 100 | 1000 to 10000 | Cc1ncc2c(N)nc3cc(F)c(C(=O)N(Cc4cnn(C(F)(F)F)c4)c4ccnn4C)cc3n12 [Example 213]
24 | < 100 | 1000 to 10000 | – | – | Cc1ccc(CN(C(=O)c2cc3c(cc2F)nc(N)c2cnc(C)n23)c2ccnn2C)nc1 [Example 214]
